Common to all, as to assay type: cell-based
Test [1] has as its target T1, c-Myc (Homo sapiens, UniProt P01106).
T1 construct: endogenous in cells; host or cells: LNCaP and PC-3 cells
Briefly: HSP60 and ClpP expression after c-Myc inhibitor. The following applies: LNCaP and PC-3 cells, 50 μM, 24 hrs. The source says:
FIG. 4. HSP60 regulate ClpP expression but not vice versa. (A) HSP60 and ClpP stable knockdown LNCaP and PC-3 cells were generated using shRNA and analyzed for HSP60 and ClpP expression levels. Actin serves as loading control. (B-C) HSP60 and ClpP knockdown LNCaP and PC-3 cells were crosslinked with EGS, lysed and protein samples run on an SDS-PAGE gel as described in material and methods. Membranes were probed with either ClpP or HSP60 antibody to analyze the oligomerization status of these proteins. (D) Enzymatic activity of ClpP was assayed from mitochondrial pellets isolated from HSP60 knockdown PC-3 cells and DU145 Hsp60^+/− cells. (E) HSP60 was overexpressed in PC-3 cells and analyzed for ClpP expression. Actin serves as loading control. (F) ClpP was overexpressed in LNCaP, DU145 and PC-3 cells and analyzed for HSP60 expression. Actin serves as loading control. […] Whole cell lysates were prepared and analyzed for HSP60 and ClpP expression. […] (H) c-Myc binding efficiency with ClpP promoter in HSP60 knockdown LNCaP and PC-3 cells was determined using chromatin immunoprecipitation (ChIP) assay using specific primers. […]
HSP60 regulates expression of ClpP via c-Myc but not vice versa. […] To confirm that c-Myc is a regulator for ClpP expression, PCa cells were treated with c-Myc pharmacological inhibitor 10058-F4 and analyzed ClpP expression levels. […]

The test system of test [2] is LNCaP and PC-3 cells. The test can be described thus: Rescue of DCEM1-induced cell death by ROS quenchers (MTT cell viability). As for the experimental part: FIG. 6. Pharmacological inhibition of HSP60-ClpP interaction induces UPR^mt and PCa cell death. (A) Docking of DCEM1 into apical domain of HSP60. (B) LNCaP and PC-3 cells were treated with DCEM1 for 24 hours and HSP60-ClpP interaction was analyzed by co-immunoprecipitation assay. (C) LNCaP and PC-3 cells were treated with DCEM1 for 24 hours and mitoROS levels were analyzed by flow cytometry using mitoSOX dye. (D) LNCaP and PC-3 cells were treated with DCEM1 for 24 hours and poly-Ub protein levels were analyzed by western blotting. (E) LNCaP and PC-3 cells were treated with DCEM1 for 24 and 48 hours and apoptotic cell populations were analyzed by flow cytometry using Annexin V FITC/PI method as explained in materials and methods. In (E) top panel, the bars in each series from left to right are control, 5, 10, and 20, and in (E) bottom panel, the bars in each series from left to right are DMSO, 5, 10, and 20. (F) LNCaP and PC-3 cells were treated with DCEM1 for 24 and 48 hours and lysates were prepared and analyzed for DEVDase activity using specific peptide substrate. […] (G) LNCaP and PC-3 cells were pre-treated with SKQ1 followed by DCEM1 treatment and analyzed for cell viability by MTT assay. (H) LNCaP and PC-3 cells were treated with either DCEM1 or H2O2 (200 μM) for 24 hours and total DNA were isolated and analyzed for mtDNA damage as described in materials and methods. […]

Test [3] has as its system HSP60-silenced cells. The test can be described thus: Cell death in HSP60-silenced cells versus mock cells. The source says:
Although cancer cells prefer aerobic glycolysis for energy, continual production of ATP via OXPHOS system is still required for rapid cancer cell survival and growth. ClpP along with LonP1 degrades Complex I during stress to alleviate mtROS, thus promoting cell survival. HSP60-silencing or inhibition of HSP60-ClpP interaction by DCEM1 contribute to mtROS buildup and mitotoxicity due to inhibition of ClpP function or ClpP-deficiency because ClpP is no longer available/functional in alleviating mtROS production and degrading unfolded protein in mitochondria leading to collapse of mitochondrial function and homeostasis. […] Mitochondrial proteases such as ClpP trigger mitochondria-to-nuclear signaling pathway and UPR^mt activation. Inhibition of ClpP expression and function by HSP60-silencing or HSP60 inhibitor such as DCEM1 may abolish mito-nuclear crosstalk leading to inhibition of retrograde signaling. Inhibition of HSP60 renders mitochondria in a fragile and dysfunctional state leading to enhanced apoptosis and blockage of cellular proliferation. Therefore, chemotherapeutic agents along with HSP60 inhibition may provide a novel combination for therapeutic benefits in PCa.

Test [4] concerns mitochondrial chaperonin activity in PCa cells. The test can be described thus: Mitochondrial Chaperonin Activity Assay (MiCAA). The following applies: 24 h. As for the experimental part: FIG. 10. Mitochondrial Chaperonin Activity Assay (MiCAA). PCa cells were treated with either DCEM1 (A) or ETB or Mizoribine (B) for 24 h and mitochondrial (Mito) chaperonin activity was analyzed as described in material and methods. In another experiment, PCa cells were transfected with siRNA to target HSP60 mRNA and mitochondrial chaperonin activity was analyzed (C). In (A), the bars in each series from left to right are DMSO and DCEM1. In (B), the bars in each series from left to right are DMSO, ETB, and MZR. In (C), the bars in each series from left to right are siMock, siHSP60-1, and siHSP60-2.
Since HSP60 chaperonin system is crucial for maintaining mitochondrial homeostasis in normal cells, a novel method, Mitochondrial Chaperonin Activity Assay (MiCAA), was developed to analyze chaperonin activity in live cells using flow cytometry to evaluate whether DCEM1 modulates mitochondrial chaperonin activity.

T1 sequence (P01106 whole entry): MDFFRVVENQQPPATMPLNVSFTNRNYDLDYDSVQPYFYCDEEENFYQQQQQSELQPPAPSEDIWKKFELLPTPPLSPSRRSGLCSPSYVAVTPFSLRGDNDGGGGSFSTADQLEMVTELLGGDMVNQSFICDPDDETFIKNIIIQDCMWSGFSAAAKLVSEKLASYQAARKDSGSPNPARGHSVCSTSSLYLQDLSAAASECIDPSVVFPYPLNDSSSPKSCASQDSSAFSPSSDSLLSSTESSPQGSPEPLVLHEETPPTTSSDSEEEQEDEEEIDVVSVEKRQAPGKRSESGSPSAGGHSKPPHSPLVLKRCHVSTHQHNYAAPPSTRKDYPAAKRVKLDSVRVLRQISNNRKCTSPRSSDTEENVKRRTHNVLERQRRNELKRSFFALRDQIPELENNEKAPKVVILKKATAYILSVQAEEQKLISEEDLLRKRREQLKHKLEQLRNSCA

In the case of `CCc1ccc(/C=C2/SC(=S)NC2=O)cc1` [10058-F4], in test [1], the ClpP expression result is listed as “downregulate ClpP expression” and the HSP60 expression result is reported as “without affecting HSP60 expression”.

As to `CC(=O)N[C@@H](CS)C(=O)O` [NAC], the “effect of NAC pre-treatment on DCEM1-induced cell death” value in test [2] (PCa cells, data not shown) is on record as “antagonizes DCEM1-induced cell death”.

Turning to `CC1=C(C)C(=O)C(CCCCCCCCCC[P+](c2ccccc2)(c2ccccc2)c2ccccc2)=CC1=O` [SKQ1], in test [2] (LNCaP and PC-3 cells pre-treated with SKQ1 followed by DCEM1, MTT assay), the “effect of mitoROS quencher pre-treatment on DCEM1-induced cell death” value is “inhibited DCEM1—induced cell death”.

Consider `CC(=O)O[C@@]12CO[C@@H]1C[C@H](O)[C@@]1(C)C(=O)[C@H](O)C3=C(C)[C@@H](OC(=O)[C@H](O)[C@@H](NC(=O)OC(C)(C)C)c4ccccc4)C[C@@](O)([C@@H](OC(=O)c4ccccc4)[C@H]21)C3(C)C` [docetaxel], for which, in test [3], the “cell death induction in HSP60-silenced cells compared to mock cells” value is given as “more efficacious”.

As to `NC(=O)c1ncn([C@@H]2O[C@H](CO)[C@@H](O)[C@H]2O)c1O` [mizoribine, reference compound], the mitochondrial chaperonin activity entry in test [4] was “significantly inhibited”.

These data come from patent US20240009174A1, “METHODS FOR DISRUPTING MITOCHONDRIAL UNFOLDED PROTEIN RESPONSE” (Health Research, Inc., priority 2020, published 2024).
